Patent US6168809A, “Alkaline-earth metal salt for the treatment of ocular or palpebral pruritus and dysesthesia” (Societe l'Oreal S.A., priority 1995, dated 2001)

Assays:
[1] = tested on: release of substance P; assay: release of substance P caused by antidromic stimulation of the sciatic nerve, visualized by Evans blue staining; format: in vivo
Description: The test consisted in determining the activity of various compounds on the release of substance P, which is caused by antidromic stimulation of the sciatic nerve. This release is visualized by staining with a stain (Evans blue). The greater the quantity of substance P released, the more intense the colour. In other words, the greater the inhibitory effect of the substance P antagonist on this release, the less intense the colour.

[2] = tested on: TNF-alpha secretion by human monocytes (line U937); assay: inhibition of secretion of TNF-alpha induced by PMA in human monocytes (line U937); format: cell-based; conditions: for % inhibition of secretion of TNF-alpha induced by PMA: PMA 10 nM, 48 hours, 37° C., mean of 3 measurements; for inhibition of TNF-alpha: in words
Experimental: This test is performed on human monocytes (line U937) stimulated by a phorbol ester (PMA) according to the method described by Schindler et al. (Correlations and interactions in the production of interleukin-6 (IL-6), IL-1, and Tumor Necrosis Factor (TNF) in human blood mononuclear cells: IL-6 suppresses IL-1 and TNF. Blood 75: 40-47 (1990)).
The phorbol ester (PMA) naturally stimulates the synthesis and/or the secretion of TNF-alpha by human monocytes in culture.
The activity of the molecules is evaluated according to their capacity to reduce or even suppress this TNF-alpha secretion.
The cells (monocytes) are incubated in the presence of PMA at the concentration of 10 nM for 48 hours at 37° C. The quantities of TNF-alpha secreted are quantified by immunoenzymatic assay (ECA) with the aid of commercially available kits.
Each molecule is tested at 3 different concentrations (10^-5, 10^-4 and 10^-3 M) and in each experiment, a reference molecule (dexamethasone) is studied at 7 concentrations as internal standard.
The results are expressed as percentage of inhibition relative to the positive control (without test molecule) after subtracting the background noise. A recapitulative table groups together the mean inhibitory effects obtained with the compounds. (The results are expressed as % inhibition; they are the mean of 3 measurements).

## O=[N+]([O-])[O-].O=[N+]([O-])[O-].[Ca+2] [Ca(NO3)2, calcium nitrate]
[1]; Table 1, in words, salts at the same concentration
  inhibitory activity on the release of substance P: no activity at all
[1]; Table 2, in words, calcium salt at a higher concentration level
  inhibitory activity on the release of substance P: no activity at all

## [Ca+2].[Cl-].[Cl-] [CaCL2.7H2 O, calcium chloride]
[2]; 10^-3 M
  % inhibition of secretion of TNF-alpha induced by PMA: 67%
[2]; 10^-4 M
  % inhibition of secretion of TNF-alpha induced by PMA: 22%
[2]; 10^-5 M
  % inhibition of secretion of TNF-alpha induced by PMA: 19%
[2]
  inhibition of TNF-alpha: inhibitors of TNF-alpha

## [Cl-].[Cl-].[Mg+2] [Mg Cl2, magnesium chloride]
[2]; 10^-3 M
  % inhibition of secretion of TNF-alpha induced by PMA: 70%
[2]; 10^-4 M
  % inhibition of secretion of TNF-alpha induced by PMA: 12%
[2]
  inhibition of TNF-alpha: inhibitors of TNF-alpha

## O=[N+]([O-])[O-].O=[N+]([O-])[O-].[Sr+2] [Sr(NO3)2, strontium nitrate]
[2]; 10^-3 M
  % inhibition of secretion of TNF-alpha induced by PMA: 75%
[2]; 10^-4 M
  % inhibition of secretion of TNF-alpha induced by PMA: 28%
[2]
  inhibition of TNF-alpha: inhibitors of TNF-alpha
[1]; Table 2, 3 μmol
  % inhibition relative to the control: 71%

## O.O.O.O.O.O.O.[Cl-].[Cl-].[Sr+2] [SrCl2 7H2O]
[2]; 10^-3 M
  % inhibition of secretion of TNF-alpha induced by PMA: 54%
[2]; 10^-5 M
  % inhibition of secretion of TNF-alpha induced by PMA: 14%

## [Cl-].[Cl-].[Sr+2] [SrCl2, strontium chloride]
[2]
  inhibition of TNF-alpha: inhibitors of TNF-alpha
